Columns and labels:
Format in all cases: biochemical
human cathepsin L = human cathepsin L (Homo sapiens, UniProt P07711); test: Assay of cathepsin L inhibitory activity in vitro; details: IC50 against human cathepsin L; substrate Z-Phe-Arg-AMC 10 μM; 25° C.; read-out: Cat-L
Experimental: Assay Method of Cathepsin L Inhibitory Activity In Vitro
0.01 ng/μL was the final concentration of Cathepsin L in the enzyme reaction, and Z-Phe-Arg-AMC with the final concentration of 10 μM was added into the reaction system as substrate, in the reaction system the test compound and enzyme had been incubated at 25° C. for 15 min.

human cathepsin B = human cathepsin B (Homo sapiens, UniProt P07858); test: Assay of cathepsin B inhibitory activity in vitro; details: IC50 against human cathepsin B; substrate Z-Phe-Arg-AMC 10 μM; 25° C.; read-out: Cat-B
Experimental: Assay Method of Cathepsin B Inhibitory Activity In Vitro
0.01 ng/μL was the final concentration of Cathepsin B in the enzyme reaction, and Z-Phe-Arg-AMC with the final concentration of 10 μM was added into the reaction system as substrate, in the reaction system the test compound and enzyme had been incubated at 25° C. for 15 min.

human cathepsin K = target: T1, human cathepsin K (Homo sapiens, UniProt P43235); test: Assay of cathepsin K inhibitory activity in vitro; details: IC50 against human cathepsin K; substrate Z-Phe-Arg-AMC 10 μM; 25° C.; read-out: Cat-K
T1 sequence (P43235 115-329): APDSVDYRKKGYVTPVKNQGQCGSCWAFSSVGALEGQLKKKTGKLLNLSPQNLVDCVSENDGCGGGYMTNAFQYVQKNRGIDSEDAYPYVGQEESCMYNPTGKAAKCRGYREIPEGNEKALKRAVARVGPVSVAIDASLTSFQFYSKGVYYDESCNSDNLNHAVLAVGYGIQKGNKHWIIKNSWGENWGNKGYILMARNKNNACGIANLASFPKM
Experimental: Assay Method of Cathepsin K Inhibitory Activity In Vitro
Using 45000-fold diluted cathepsin K solution and 10 μM Z-Phe-Arg-AMC as substrate, the test compound and cathepsin K solution were incubated at 25° C. for 15 min in a 15 μL reaction system according to the optimized experimental condition.

human cathepsin S = human cathepsin S (Homo sapiens, UniProt P25774); test: Assay of cathepsin S inhibitory activity in vitro; details: IC50 against human cathepsin S; substrate Z-VVR-AMC 20 μM; 25° C.; read-out: Cat-S
Experimental: Assay Method of Cathepsin S Inhibitory Activity In Vitro
0.25 ng/L was the final concentration of Cathepsin S in the enzyme reaction, and Z-VVR-AMC with the final concentration of 20 μM was added into the reaction system as substrate, in the reaction system the test compound and enzyme had been incubated at 25° C. for 15 min.

human cathepsin S, sequence (P25774 115-331): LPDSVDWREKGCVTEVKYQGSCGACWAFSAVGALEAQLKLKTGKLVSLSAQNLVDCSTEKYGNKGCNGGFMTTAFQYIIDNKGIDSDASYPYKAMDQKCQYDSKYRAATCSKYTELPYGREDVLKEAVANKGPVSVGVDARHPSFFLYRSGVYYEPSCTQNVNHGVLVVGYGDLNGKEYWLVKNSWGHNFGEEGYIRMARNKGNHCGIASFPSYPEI
human cathepsin L, sequence (P07711 114-333): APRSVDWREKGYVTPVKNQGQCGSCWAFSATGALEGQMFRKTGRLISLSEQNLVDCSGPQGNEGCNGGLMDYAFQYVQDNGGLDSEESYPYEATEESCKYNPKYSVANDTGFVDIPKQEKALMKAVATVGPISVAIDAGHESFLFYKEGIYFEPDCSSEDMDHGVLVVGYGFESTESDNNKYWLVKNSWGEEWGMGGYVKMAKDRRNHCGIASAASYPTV

| Compound | IC50 (human cathepsin L) | IC50 (human cathepsin B) | IC50 (human cathepsin K) | IC50 (human cathepsin S) |
| --- | --- | --- | --- | --- |
| N#CC1(NC(=O)C2(NC(=O)c3cc4ccc(-c5ccc(C6(N)COC6)cc5)cc4o3)CCCCC2)CC1 [Example 1, 6-(4-(3-aminooxetan-3-yl)phenyl)-N-(1-((1-cyanocyclopropyl)carbamoyl)cyclohexyl)benzofuran-2-carboxamide] | 1500 nM | 22 nM | 0.19 nM | 1800 nM |
| COc1ccc(-c2ccc3cc(C(=O)NC4(C(=O)NC5(C#N)CC5)CCC(F)(F)CC4)oc3c2)cc1OC [Example 4, N-(1-((1-cyanocyclopropyl)carbamoyl)-4,4-difluorocyclohexyl)-6-(3,4-dimethoxyphenyl)benzofuran-2-carboxamide] | > 10000 nM | 2500 nM | 2.1 nM | > 10000 nM |
| CS(=O)(=O)c1ccc(-c2ccc3cc(C(=O)NC4(C(=O)NC5(C#N)CC5)CCCCC4)oc3c2)c(F)c1 [Example 5, N-(1-((1-cyanocyclopropyl)carbamoyl)cyclohexyl)-6-(2-fluoro-4-(methylsulfonyl)phenyl)benzofuran-2-carboxamide] | > 10000 nM | 78 nM | 1.1 nM | 1600 nM |
| N#CC1(NC(=O)C2(NC(=O)c3cc4ccc(-c5ccc(C(O)C(F)F)cc5)cc4o3)CCCCC2)CC1 (stereo not shown) [Example 7, N-(1-((1-cyanocyclopropyl)carbamoyl)cyclohexyl)-6-(4-(2,2-difluoro-1-hydroxyethyl)phenyl)benzofuran-2-carboxamide] | > 10000 nM | 103 nM | 0.62 nM | 2100 nM |
| N#CC1(NC(=O)C2(NC(=O)c3cc4ccc(-c5ccc(C6(O)CCC6)cc5)cc4o3)CCCCC2)CC1 [Example 9, N-(1-((1-cyanocyclopropyl)carbamoyl)cyclohexyl)-6-(4-(1-hydroxycyclobutyl)phenyl)benzofuran-2-carboxamide] | > 10000 nM | 410 nM | 2.7 nM | 3500 nM |
| N#CC1(NC(=O)C2(NC(=O)c3cc4ccc(-c5ccc(C6(O)CCOCC6)cc5)cc4o3)CCC(F)(F)CC2)CC1 [Example 22, N-(1-((1-cyanocyclopropyl)carbamoyl)-4,4-difluorocyclohexyl)-6-(4-(4-hydroxytetrahydro-2H-pyran-4-yl)phenyl)benzofuran-2-carboxamide] | > 10000 nM | 3100 nM | 1.8 nM | 1800 nM |
| N#CC1(NC(=O)C2(NC(=O)c3cc4ccc(-c5ccc6c(c5)OCCO6)cc4o3)CCC(F)(F)CC2)CC1 [Example 33, N-(1-((1-cyanocyclopropyl)carbamoyl)-4,4-difluorocyclohexyl)-6-(2,3-dihydrobenzo[b][1,4]dioxin-6-yl)benzofuran-2-carboxamide] | > 10000 nM | 2300 nM | 2.95 nM | > 10000 nM |
| COc1cc(-c2ccc3cc(C(=O)NC4(C(=O)NC5(C#N)CC5)CCC(F)(F)CC4)oc3c2)ccc1-n1cncn1 [Example 39, N-(1-((1-cyanocyclopropyl)carbamoyl)-4,4-difluorocyclohexyl)-6-(3-methoxy-4-(1H-1,2,4-triazol-1-yl)phenyl)benzofuran-2-carboxamide] | > 10000 nM | 409 nM | 0.31 nM | > 10000 nM |
| COc1cc(-c2ccc3cc(C(=O)NC4(C(=O)NC5(C#N)CC5)CCC(F)(F)CC4)oc3c2)ccc1C(=O)N1CCOCC1 [Example 40, N-(1-((1-cyanocyclopropyl)carbamoyl)-4,4-difluorocyclohexyl)-6-(3-methoxy-4-(morpholine-4-carbonyl)phenyl)benzofuran-2-carboxamide] | > 10000 nM | 2220 nM | 0.96 nM | > 10000 nM |
| COc1cc(-c2ccc3cc(C(=O)NC4(C(=O)NC5(C#N)CC5)CCC(F)(F)CC4)oc3c2)ccc1OCC(C)(C)O [Example 44, N-(1-((1-cyanocyclopropyl)carbamoyl)-4,4-difluorocyclohexyl)-6-(4-(2-hydroxy-2-methylpropoxy)-3-methoxyphenyl)benzofuran-2-carboxamide] | > 10000 nM | 7970 nM | 2.35 nM | > 10000 nM |

Other lines, results leading:

| IC50 (human cathepsin L) | IC50 (human cathepsin B) | IC50 (human cathepsin K) | IC50 (human cathepsin S) | Compound |
| --- | --- | --- | --- | --- |
| > 10000 nM | 880 nM | 1.37 nM | 4000 nM | CS(=O)(=O)c1ccc(-c2ccc3cc(C(=O)NC4(C(=O)NC5(C#N)CC5)CCC(F)(F)CC4)oc3c2)cc1 [Example 2, N-(1-((1-cyanocyclopropyl)carbamoyl)-4,4-difluorocyclohexyl)-6-(4-(methylsulfonyl)phenyl)benzofuran-2-carboxamide] |
| > 10000 nM | 750 nM | 3.1 nM | 620 nM | N#CC1(NC(=O)C2(NC(=O)c3cc4ccc(-c5ccc(C(O)CO)cc5)cc4o3)CCC(F)(F)CC2)CC1 (stereo not shown) [Example 6, N-(1-((1-cyanocyclopropyl)carbamoyl)-4,4-difluorocyclohexyl)-6-(4-(1,2-dihydroxyethyl)phenyl)benzofuran-2-carboxamide] |
| 3100 nM | 86 nM | 0.38 nM | 260 nM | N#CC1(NC(=O)C2(NC(=O)c3cc4ccc(-c5ccc(C6(N)COC6)cc5)cc4o3)CCC(F)(F)CC2)CC1 [Example 14, 6-(4-(3-aminooxetan-3-yl)phenyl)-N-(1-((1-cyanocyclopropyl)carbamoyl)-4,4-difluorocyclohexyl)benzofuran-2-carboxamide] |
| > 10000 nM | 750 nM | 3.1 nM | 620 nM | N#CC1(NC(=O)C2(NC(=O)c3cc4ccc(-c5ccc(C(O)C6(O)CC6)cc5)cc4o3)CCC(F)(F)CC2)CC1 (stereo not shown) [Example 15, N-(1-((1-cyanocyclopropyl)carbamoyl)-4,4-difluorocyclohexyl)-6-(4-(hydroxy(1-hydroxycyclopropyl)methyl)phenyl)benzofuran-2-carboxamide] |
| > 10000 nM | > 10000 nM | 2 nM | 2300 nM | N#CC1(NC(=O)C2(NC(=O)c3cc4ccc(-c5ccc(OC6COC6)cc5)cc4o3)CCC(F)(F)CC2)CC1 [Example 19, N-(1-((1-cyanocyclopropyl)carbamoyl)-4,4-difluorocyclohexyl)-6-(4-(oxetan-3-yloxy)phenyl)benzofuran-2-carboxamide] |
| > 10000 nM | 2100 nM | 0.83 nM | 400 nM | N#CC1(NC(=O)C2(NC(=O)c3cc4ccc(-c5ccc(C6(O)CCS(=O)(=O)CC6)cc5)cc4o3)CCC(F)(F)CC2)CC1 [Example 27, N-(1-((1-cyanocyclopropyl)carbamoyl)-4,4-difluorocyclohexyl)-6-(4-(4-hydroxy-1,1-dioxidotetrahydro-2H-thiopyran-4-yl)phenyl)benzofuran-2-carboxamide] |
| > 10000 nM | 2200 nM | 1.2 nM | 1900 nM | N#CC1(NC(=O)C2(NC(=O)c3cc4ccc(-c5ccc(N6CCOCC6=O)cc5)cc4o3)CCC(F)(F)CC2)CC1 [Example 28, N-(1-((1-cyanocyclopropyl)carbamoyl)-4,4-difluorocyclohexyl)-6-(4-(3-oxomorpholino)phenyl)benzofuran-2-carboxamide] |
| > 10000 nM | 7600 nM | 1.9 nM | 3300 nM | N#CC1(NC(=O)C2(NC(=O)c3cc4ccc(-c5ccc6ncoc6c5)cc4o3)CCC(F)(F)CC2)CC1 [Example 32, 6-(benzo[d]oxazol-6-yl)-N-(1-((1-cyanocyclopropyl)carbamoyl)-4,4-difluorocyclohexyl)benzofuran-2-carboxamide] |
| > 10000 nM | > 10000 nM | 1.01 nM | > 10000 nM | N#CC1(NC(=O)C2(NC(=O)c3cc4ccc(-c5ccc(S(=O)(=O)N6CCOCC6)cc5)cc4o3)CCC(F)(F)CC2)CC1 [Example 47, N-(1-((1-cyanocyclopropyl)carbamoyl)-4,4-difluorocyclohexyl)-6-(4-(morpholinosulfonyl)phenyl)benzofuran-2-carboxamide] |
| – | – | 1.02 nM | – | CS(=O)(=O)COc1ccc(-c2ccc3cc(C(=O)NC4(C(=O)NC5(C#N)CC5)CCC(F)(F)CC4)oc3c2)cc1 [Example 98] |
| – | – | 0.56 nM | – | COc1cc(-c2ccc3cc(C(=O)NC4(C(=O)NC5(C#N)CC5)CCC(F)(F)CC4)oc3c2)ccc1CS(C)(=O)=O [Example 100] |
| – | – | 0.88 nM | – | COc1cc(-c2ccc3cc(C(=O)NC4(C(=O)NC5(C#N)CC5)CCC(F)(F)CC4)oc3c2)ccc1OCS(C)(=O)=O [Example 101] |

— patent publication US10494364B2, “Cathepsin K inhibitors and application thereof” (SUNSHINE LAKE PHARMA CO., LTD., priority 2015, dated 2019)
